{"source": "patent US20210145830A1", "about": "“MATERIALS AND METHODS FOR TREATING CANCER” (Mayo Foundation for Medical Education and Research, priority 2018, published 2021)", "test_system": "luciferase-positive Jeko", "test": "CART19 cytotoxicity in the presence of TP0903", "type": "cell-based", "method": "FIG. 1 contains a graph showing CART19 cytotoxicity in the presence TP0903. CART19 or untransduced T cells (UTDs) were co-cultured at different effector-to-target ratios (E:T) with luciferase-positive Jeko with increasing doses of TP0903 (TP). At 24 hours, cell killing was assessed by luminescence.\nFIGS. 16A-B. A head-to-head comparison of two different combination therapy. UTDs (A) or CART19 (B) were co-cultured at different effector-to-target ratios (E:T) with luciferase-positive CD19^+ cell line in the presence of DMSO, 30 nM TP0903, or 100 nM ibrutinib. Cell killing was assessed by luminescence at 24 hours.\nFIG. 22A-C. In vitro experiment for the combination of CART19 and TP0903. A. CART19 were cocultured at different effector-to-target ratio (E:T) with luciferase-positive JeKo-1. At 48 hours, cell killing was assessed by luminescence. […] The means and SEM are shown (**, p<0.005, *, p<0.05, one-way ANOVA analysis). n.s., not statistically significant. B. CART19 degranulation assay and cytokine production in the presence of TP0903. CART19 were cocultured with JeKo-1 for 4 hours in the presence of TP0903 doses of TP0903 (10-65 nM). […] C. Th2/Th1 T cell subtype analysis during CART19 expansion in the presence pf TP0903. CART19 cells were stimulated with lethally irradiated (120 Gy) JeKo-1 cell lines in the presence of increasing doses of TP0903 (10-30 nM). At the day 3, Th1 and Th2 cells were defined using CD4, CCR6, CCR4 and CXCR3 expression. […] The means and SEM are shown (*, p<0.05, one-way ANOVA analysis). n.s., not statistically significant.\nJEKO-Luc cells or primary B cells were used for cytotoxicity assay. In brief, targets were incubated at the indicated ratios with effector T cells for 4 or 16 hours. Killing was calculated either by bioluminescence imaging on a Xenogen IVIS-200 Spectrum camera (PerkinElmer, Hopkinton, Mass., USA) or by flow cytometry. For the latter, cells were harvested; Countbright beads and life/dead (Invitrogen) were added prior to analysis. Residual live target cells were CD19+L/D−.\nCART19 or UTDs were cocultured at different effector-to-target ratio (E:T) with luciferase-positive Jeko or with primary CLL cells, with increasing dose of TP0903 as indicated on the X axis. At 24 hours, cell killing was assessed by luminescence or by flow cytometry."}
{"compound": "CN1CCN(Cc2ccc(Nc3ncc(Cl)c(Nc4ccccc4S(=O)(=O)N(C)C)n3)cc2)CC1", "note": "[TP0903]", "values": [{"measurement": "cell killing, head-to-head comparison of combinations", "setting": "30 nM TP0903 + CART19 vs 100 nM ibrutinib + CART19, luciferase-positive CD19+ cell line, 24 hours", "result": "more synergistic killing"}, {"measurement": "type of combination effect on cell killing", "setting": "CART19 + TP0903, from calculations", "result": "synergistic rather than an additive effect"}, {"measurement": "cell killing assessed by luminescence", "setting": "CART19 + increasing doses of TP0903, different E:T ratios, luciferase-positive Jeko or primary CLL cells, 24 hours", "result": "robust killing at all E:T ratios"}, {"measurement": "cytotoxic effect versus TP0903 dose", "setting": "CART19 with luciferase-positive JeKo-1, 48 hours, at a specific E:T ratio", "result": "increased cytotoxic effect was significantly correlated to increased TP0903 dose"}, {"measurement": "antitumor activity against JeKo in vitro", "setting": "combination of CART19 cells and TP0903, low E:T ratios", "result": "synergistic antitumor activity"}]}
